# According to paper PMC4232510, “Identification of Functionally Important Residues of the Rat P2X4 Receptor by Alanine Scanning Mutagenesis of the Dorsal Fin and Left Flipper Domains” (PLoS ONE, 2014):
# Where a chain is given by its changes, count along the chain named.
# Assays:
# [1] = biological target: T1, rP2X4R P207A mutant (Rattus norvegicus, UniProt P51577, P207A); assay: whole-cell patch clamp, HEK293T cells expressing mutant; type: cell-based
# T1 construct: expressed in transfected cells; host or cells: HEK293T
# T1 sequence (P51577 1-388 P207A): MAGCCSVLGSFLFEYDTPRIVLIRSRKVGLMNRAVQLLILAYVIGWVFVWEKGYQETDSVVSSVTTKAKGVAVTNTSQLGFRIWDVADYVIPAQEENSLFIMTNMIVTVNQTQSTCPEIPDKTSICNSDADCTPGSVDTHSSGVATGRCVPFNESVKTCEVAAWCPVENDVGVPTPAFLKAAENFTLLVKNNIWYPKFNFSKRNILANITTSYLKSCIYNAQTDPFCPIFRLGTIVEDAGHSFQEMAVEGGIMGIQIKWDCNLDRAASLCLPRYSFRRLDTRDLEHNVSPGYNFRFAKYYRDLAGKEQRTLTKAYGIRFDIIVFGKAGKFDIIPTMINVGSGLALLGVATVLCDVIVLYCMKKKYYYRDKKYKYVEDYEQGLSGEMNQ
# [2] = biological target: T2, rP2X4R V288A mutant (Rattus norvegicus, UniProt P51577, V288A); assay: as above; type: cell-based
# T2 construct: expressed in transfected cells; host or cells: HEK293T
# T2 sequence (P51577 1-388 V288A): T1 sequence (P51577 1-388 P207A) with A207P, V288A
# [3] = 100 µM ATP 60 s, biexponential fit
# [4] = contribution of τdes2, 100 µM ATP 60 s
# [5] = naïve receptors, 2–5 s application
# [6] = 3 µM IVM 4-6 min vs IVM-untreated
Structure (SMILES),"τdes1 [1, 3]","τdes2 [1, 3]","A2 /(A1+A2) [1, 4]","EC50 [1, 5]","τdes ([1]; weighted, 100 µM ATP 60 s)","τdes1 [2, 3]","τdes2 [2, 3]",Imax ([2]; 100–1000 µM ATP),Imax+IVM ([2]; ATP after 3 µM IVM 4-6 min),"A2 /(A1+A2) [2, 4]","τoff +IVM ([2]; decay after removal of 1 or 3 µM ATP, 3 µM IVM)","EC50 [2, 5]","τdes ([2]; weighted, 100 µM ATP 60 s)","Fold incr. Imax [1, 6]","Fold incr. Imax [2, 6]"
Nc1ncnc2c1ncn2[C@@H]1O[C@H](COP(=O)(O)OP(=O)(O)OP(=O)(O)O)[C@@H](O)[C@H]1O [ATP],0.7 ± 0.1 s,5.6 ± 0.2 s,71 ± 2%,2.1 ± 1.1 µM,4.1 ± 0.2 s,1.7 ± 0.3 s,9.3 ± 1.7 s,1.3 ± 0.2 nA,3.0 ± 0.7 nA,72 ± 8%,19 ± 2.0 s,5.7 ± 3.1 µM,7.5 ± 1.6 s,,
"CC[C@H](C)[C@H]1O[C@]2(CC[C@@H]1C)C[C@@H]1C[C@@H](C/C=C(\C)[C@@H](O[C@H]3C[C@H](OC)[C@@H](O[C@H]4C[C@H](OC)[C@@H](O)[C@H](C)O4)[C@H](C)O3)[C@@H](C)/C=C/C=C3\CO[C@@H]4[C@H](O)C(C)=C[C@@H](C(=O)O1)[C@]34O)O2 [IVM, ivermectin]",,,,,,,,,,,,,,1.5 ± 0.3 fold,2.3 ± 0.3 fold
